Data: US9126060B2, “Cosmetic use of geranylgeranyl-2-propanol” (SEDERMA, priority 2010, dated 2015)

What was measured:
collagen I = test: Collagen I synthesis in presenescent fibroblasts (immunofluorescence, image analysis); type: cell-based, human; settings: 10^−6%; positive control
Description: Principle: The collagen I synthesis was monitored in pre-senescent human dermal fibroblasts. These cells were cultured for 11 days with the GGP in a growth medium. Following this incubation, the cell layers were fixed and labeled by immunofluorescence, to visualize the network of collagen I and to quantify by image analysis on photographs. In parallel, quantification was performed on proliferating cells.

hyaluronic acid = test: Hyaluronic acid synthesis in human fibroblasts; type: cell-based; settings: 10^−6%; positive control
Description: Principle: Human dermal fibroblasts were grown in plate for 24 hours. The cells are then placed in contact or not with GGP for 24 hours. Culture supernatants were collected and assayed for the amount of hyaluronic acid (HA) is then divided by the number of cells present on the layer. TGF-β1 is used as a positive control.

fibroblasts (FHN) = test: Intracellular peroxide level (DCFH-DA probe) in fibroblasts after SIPS; type: cell-based, human; settings: 120 ppm
Description: Principle: Fibroblasts at confluence contacted or not with the GGP for several days, are subjected to oxidative stress by hydrogen peroxide in the presence or absence of the GGP. This stress is intended to induce premature senescence in cells.
After this initial stress, the cells were detached from the support and returned to culture at low density until confluence. They are then contacted or not with the compound of the invention for 24 hours. At this stage, each set of cultures (with or without the tested compounds) is divided into 2 lots. A first batch (not stressed) is evaluated directly for its concentration of intracellular peroxides (using the probe DCFH-DA). Simultaneously, the other batch (stressed) undergoes a second stress by hydrogen peroxide (weaker than the first) just before being evaluated in the same way regarding the concentration of intracellular peroxides.
The amount of fluorescence measured with this probe is directly proportional to the amount of peroxides present in the cells.

[1] = ORAC test (Oxygen-Radical Absorbance Capacity): fluorescein degradation by peroxyl radicals; type: biochemical; settings: positive control, 10μ
Description: Principle: the ORAC test (“Oxygen-Radical Absorbance Capacity”) measures degradation by the oxidative way of a fluorescent molecule (fluorescein). Degradation of fluorescein by peroxyl radicals generated by AAPH (2,2′-azobis (2-amidinopropane) dichloride) induces a decrease in fluorescence measured by a spectrofluorometer during a degradation kinetic.
An antioxidant protects this fluorescein against this radical degradation. The decrease in fluorescence will be smaller and slower in the presence of the antioxidant than in its absence. The comparison between the parameters of the two kinetics makes it possible to calculate a percentage of protection against free radical degradation.

presenescent fibroblasts = test: Mitochondrial membrane potential of presenescent fibroblasts (dye ratio λ520/λ590); type: cell-based; settings: 120 ppm
Description: It is possible to measure the membrane potential through a specific membrane dye. Depending on the level of the membrane potential, this dye is rather present as monomer (emission fluorescence at 520 nm) or rather in the multimetric form (fluorescence emission at 590 nm). High membrane potential promotes a multimetric form.
The ratio λ520/λ590 varies inversely with the membrane potential. The lower the ratio is, the higher the membrane potential is. The increase in the ratio thus reflects a decrease in membrane potential. The ratio λ520/λ590 for young and proliferating cells is 2.97+/−0.17.
[…] After this period, the membrane potential of half of the cultures was measured.
The other half of the cultures underwent an oxidative stress (hydrogen peroxide) before measuring their membrane potential.

human dermal fibroblasts = test: Senescence associated β-galactosidase activity in fibroblasts after oxidising stress (FDG fluorimetry); type: cell-based; settings: 120 ppm; positive control
Description: Principle: Proliferative human dermal fibroblasts were contacted or not with the GGP for 72 hours in a growth medium. After this first incubation, the cells were subjected for 5 days to an oxidative stress daily, one hour each, in a basic medium, common to all cultures. This stress is known to create a SIPS and to induce a strong increase in β-galactosidase activity in the stressed culture compared to an unstressed culture. Between two stress cells are returned to the growth medium with or without the substance tested. After the fifth stress, β-galactosidase activity is evaluated.
Evaluation of β-galactosidase activity is done after fixing the layers. They are put in contact with a substrate of β-galactosidase nonfluorescent FDG (fluorescein di-β-galactopyranoside), which will release a fluorescent compound upon hydrolysis by β-galactosidase. The emitted fluorescence is quantified in a fluorometer. It will increase with the amount of senescent cells present in culture. The relative activity of β-galactosidase thus found is 2974+/−957 UFA/million cells in a proliferative culture and increases by a factor 5 (p<0.01) in a culture little to not proliferative.

tyrosinase = target: T1, tyrosinase (Homo sapiens, UniProt P14679); test: Residual tyrosinase activity in human melanocytes; type: cell-based; settings: 0.03%; positive control
T1 construct: endogenous in cells; host or cells: human melanocytes
T1 sequence (P14679 19-529): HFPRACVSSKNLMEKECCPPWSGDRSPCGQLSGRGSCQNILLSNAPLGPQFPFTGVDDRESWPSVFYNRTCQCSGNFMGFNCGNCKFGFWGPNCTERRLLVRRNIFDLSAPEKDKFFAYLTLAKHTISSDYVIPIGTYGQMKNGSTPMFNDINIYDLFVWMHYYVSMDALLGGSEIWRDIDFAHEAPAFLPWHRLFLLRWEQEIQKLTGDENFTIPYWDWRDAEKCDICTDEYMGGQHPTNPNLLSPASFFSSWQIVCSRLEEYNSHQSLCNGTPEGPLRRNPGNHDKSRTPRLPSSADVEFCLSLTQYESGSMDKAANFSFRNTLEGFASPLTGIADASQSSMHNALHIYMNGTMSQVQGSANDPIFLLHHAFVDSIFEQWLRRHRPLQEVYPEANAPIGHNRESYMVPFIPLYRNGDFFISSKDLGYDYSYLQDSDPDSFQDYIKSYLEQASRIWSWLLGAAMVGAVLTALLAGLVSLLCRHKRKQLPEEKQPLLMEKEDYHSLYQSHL
Description: (§1) Principle: Human melanocytes are seeded and placed in contact with the GGP for 5 days. After incubation, the residual tyrosinase activity and total melanin content were measured in cell homogenates, and then divided by the number of cells (melanin) or to the protein amount (tyrosinase).

human melanocytes = test: Melanin content of human melanocytes; type: cell-based; settings: 0.03%; positive control
Description: as §1

[2] = SIPS fibroblasts subjected to a second oxidant stress

TGF-β: TGF-β1 is used as a positive control [reference compound]
collagen I synthesis, factor vs control (collagen I): Positive control: TGF-β at 10^−6%: ×8.3 times
% of change of hyaluronic acid vs control (hyaluronic acid): Positive control: TGF-β1 à 10^−6%: +206% (p < 0.01)

Cc1c(C)c2c(c(C)c1O)CCC(C)(C(=O)O)O2 (stereo not drawn) [Trolox, reference compound]
% Change/Control of endogen peroxides (fibroblasts (FHN); [2]): −85%; p < 0.01
Endogen peroxides (fibroblasts (FHN); [2]): 158 +/− 7 UFA/million of cells
% Change/Control of endogen peroxides (fibroblasts (FHN); after SIPS, not stressed again): −43%; p < 0.01
Endogen peroxides (fibroblasts (FHN); after SIPS, not stressed again): 57.5 +/− 3.8 UFA/million of cells
% of protection [1]: Positive control = Trolox 10μ = 94% (p < 0.01)
% of protection of the respiration potential (presenescent fibroblasts; no stress): +44%; nsd
ΔΨ loss with regard to non stressed young cells (presenescent fibroblasts; one week, no stress): 0.80 +/− 0.52
Improvement of the respiration potential (presenescent fibroblasts; with oxidative stress): +43%; p < 0.05
ΔΨ loss with regard to non stressed young cells (presenescent fibroblasts; with oxidative stress (hydrogen peroxide)): 3.18 +/− 1.16
Change with regard to non stressed young cells (presenescent fibroblasts; with oxidative stress, control −100%): −57%
Change with regard to control (β-galactosidase) (human dermal fibroblasts): Positive control: Trolox 120 ppm = −45% (p < 0.05)

OC[C@H]1O[C@@H](Oc2ccc(O)cc2)[C@H](O)[C@@H](O)[C@@H]1O [Arbutine, reference compound]
Change (%) of tyrosinase activity vs control (tyrosinase): −33%
Change (%) of melanin content vs control (human melanocytes): −40%
